According to PubChem BioAssay (NCI):
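Values below derive from 48-hour exposures of cells grown in 96-well plates, with endpoints linearly interpolated between the two concentrations bracketing the appropriate inhibition level. At the TGI there is no net growth.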

How the values were obtained:
Assay in all cases: NCI tumour cell line growth inhibition, 48 h
T-47D breast = test system: T-47D breast
SN12C renal = test system: SN12C renal
M14 melanoma = test system: M14 melanoma
NCI-H522 lung = test system: NCI-H522 lung
A549 NSCLC = test system: A549 NSCLC
A498 renal = test system: A498 renal
HOP-62 NSCLC = test system: HOP-62 NSCLC
U251 CNS = test system: U251 CNS
HCT-116 colon = test system: HCT-116 colon
UACC-257 melanoma = test system: UACC-257 melanoma
MOLT-4 leukemia = test system: MOLT-4 leukemia
OVCAR-3 ovarian = test system: OVCAR-3 ovarian
OVCAR-8 ovarian = test system: OVCAR-8 ovarian
786-0 renal = test system: 786-0 renal
ACHN renal = test system: ACHN renal
MDA-MB-231 breast = test system: MDA-MB-231 breast
OVCAR-4 ovarian = test system: OVCAR-4 ovarian
COLO 205 colon = test system: COLO 205 colon
CCRF-CEM leukemia = test system: CCRF-CEM leukemia
RXF 393 renal = test system: RXF 393 renal

SMILES | TGI (T-47D breast) | TGI (SN12C renal) | TGI (M14 melanoma) | TGI (NCI-H522 lung) | TGI (A549 NSCLC) | TGI (A498 renal) | TGI (HOP-62 NSCLC) | TGI (U251 CNS) | TGI (HCT-116 colon) | TGI (UACC-257 melanoma) | TGI (MOLT-4 leukemia) | TGI (OVCAR-3 ovarian) | TGI (OVCAR-8 ovarian) | TGI (786-0 renal) | TGI (ACHN renal) | TGI (MDA-MB-231 breast) | TGI (OVCAR-4 ovarian) | TGI (COLO 205 colon) | TGI (CCRF-CEM leukemia) | TGI (RXF 393 renal)
O=S1(=O)Cc2ccc3c4c2-c2c(ccc5ccc(c-4c25)CS(=O)(=O)C3)C1 | > 100 µM | > 100 µM | > 100 µM | > 100 µM | > 100 µM | > 100 µM | > 100 µM | > 100 µM | > 100 µM | > 100 µM | > 100 µM | > 100 µM | > 100 µM | > 100 µM | > 100 µM | > 100 µM | > 100 µM |  |  | 
CC(CO)CCNc1ncnc2c1ncn2CCC(=O)OC(C)(C)C (configuration not stated) | > 100 µM | > 100 µM | > 100 µM | > 100 µM | > 100 µM | > 100 µM | > 100 µM |  | > 100 µM | > 100 µM | > 100 µM | > 100 µM | > 100 µM | > 100 µM | > 100 µM | > 100 µM | > 100 µM | > 100 µM | > 100 µM | > 100 µM
O=C(N[C@@H](c1ccccc1)[C@@H](O)C(=O)OCc1ccc([N+](=O)[O-])cc1)c1ccccc1 | > 100 µM | > 100 µM |  | > 100 µM | > 100 µM | > 100 µM | > 100 µM | > 100 µM | > 100 µM | > 100 µM | 76 µM | > 100 µM | > 100 µM | > 100 µM | > 100 µM | > 100 µM | > 100 µM | > 100 µM | > 100 µM | > 100 µM
O=C(c1cccs1)N(C(=O)N1CCN(c2ccccc2)CC1)S(=O)(=O)c1ccccc1 | 40.4 µM | 35.1 µM | 36 µM | 34.2 µM | 98.4 µM | > 100 µM | > 100 µM | 33.3 µM | 38.6 µM | 69.9 µM | 49.8 µM | > 100 µM | 39.5 µM | 59.4 µM | 39.9 µM | 51.6 µM | > 100 µM | 30.1 µM | > 100 µM | 
CCC(=O)O[C@H]1CC[C@H]2[C@@H]3CCC4=C/C(=N/OC(=O)c5cccc6c(=O)c7ccccc7[nH]c56)CC[C@]4(C)[C@H]3CC[C@]12C | > 100 µM | > 100 µM | 77.7 µM | 56.1 µM | > 100 µM | 77.7 µM | > 100 µM | > 100 µM |  | > 100 µM | 53.4 µM | 38.4 µM | > 100 µM | 36.5 µM | > 100 µM | > 100 µM | > 100 µM | > 100 µM | 57.5 µM | 45.4 µM
Cc1cc(C)c2c(c1)C/C(=C\c1ccccc1C(=O)O)C2=O | > 100 µM | > 100 µM | > 100 µM | > 100 µM | > 100 µM | > 100 µM | > 100 µM | > 100 µM | > 100 µM | > 100 µM | > 100 µM | > 100 µM | > 100 µM | > 100 µM | > 100 µM | > 100 µM | > 100 µM |  | > 100 µM | > 100 µM
COc1cc(C(C)=O)cc(C(=O)N(C(C)C)C(C)C)c1[Si](C)(C)C | > 100 µM |  | > 100 µM | > 100 µM | > 100 µM | > 100 µM | > 100 µM | > 100 µM | > 100 µM | > 100 µM | > 100 µM | > 100 µM | > 100 µM | > 100 µM | > 100 µM | > 100 µM | > 100 µM | > 100 µM | > 100 µM | 
O=C(c1ccccc1)c1c(-c2ccccc2)n(-c2ccccc2)[nH]c(=O)c1=O | > 100 µM | > 100 µM | > 100 µM | 38.3 µM | > 100 µM | > 100 µM | > 100 µM | > 100 µM | > 100 µM | > 100 µM | > 100 µM | > 100 µM | > 100 µM | > 100 µM | > 100 µM | 84.9 µM | > 100 µM | > 100 µM | 35.5 µM | 
O=C1c2cccc3cccc(c23)C(=O)N1CCCNCCCNCCCCNCCCNCCCN1C(=O)c2cccc3cccc(c23)C1=O | 47 µM | 16.4 µM | 16.2 µM | 32.6 µM | 12.9 µM | 25.2 µM | 27.3 µM | 20.2 µM | 8.17 µM | 22.6 µM | 2.84 µM | 19.6 µM | 40 µM | 6.12 µM | 15.3 µM | 22.4 µM | 19.1 µM |  | 3.29 µM | 19.1 µM
Cc1nc2ccc(NC(=S)Nc3ccccc3)cc2c(=O)n1-c1ccccc1 | > 100 µM | > 100 µM |  | > 100 µM |  | > 100 µM | > 100 µM | > 100 µM | > 100 µM | > 100 µM | > 100 µM | > 100 µM | > 100 µM | > 100 µM | > 100 µM | > 100 µM | > 100 µM | > 100 µM |  | > 100 µM
COC(=O)c1ccccc1Nc1nc(-c2cccs2)nc2cc(OC)c(OC)cc12 | > 100 µM | > 100 µM | > 100 µM | > 100 µM | > 100 µM | > 100 µM | 42.1 µM | > 100 µM | > 100 µM | > 100 µM | > 100 µM | 72.2 µM | > 100 µM | > 100 µM | > 100 µM | > 100 µM | > 100 µM | > 100 µM |  | > 100 µM
Oc1cc(O)cc(-c2nc3cc(F)ccc3s2)c1 | 51.4 µM | 76.4 µM | 50.1 µM | 36.9 µM | > 100 µM | 47.1 µM |  | 60.5 µM | 65.5 µM | 45.6 µM |  | 63.6 µM | 64.8 µM | 47.1 µM | 81.3 µM | 55.8 µM | 63.7 µM | 40 µM | > 100 µM | 72.4 µM
